Experimental data published in the NIST ThermoML archive (doi:10.1016/j.tca.2008.10.015).

Legend:
[1] = 101.33 kPa, Liquid, conductivity meter
[2] = molar heat capacity at constant pressure; conditions: 101.33 kPa, Liquid, Small sample (50 mg) DSC

CCCCn1cc[n+](C)c1.O=S(=O)([O-])C(F)(F)F [1-butyl-3-methylimidazolium trifluoromethanesulfonate]
Conditions | electrical conductivity, [1] [S/m] | molar heat capacity at constant pressure, [2] [J/K/mol]
303.2 K | 0.23 | 443.96
308.2 K | 0.286 | 443.96
313.2 K | 0.358 | 446.85
318.2 K | 0.437 | 449.73
323.2 K | 0.521 | 452.61
328.2 K | 0.619 | 452.61
333.2 K | 0.724 | 455.5
338.2 K | 0.841 | 458.38
343.2 K | 0.967 | 461.26
348.2 K | 1.25 | 464.14
353.2 K | 1.57 | 467.03
358.2 K | – | 469.91

CCCCn1cc[n+](C)c1.F[P-](F)(F)(F)(F)F [1-butyl-3-methylimidazolium hexafluorophosphate]
Conditions | electrical conductivity, [1] [S/m] | molar heat capacity at constant pressure, [2] [J/K/mol]
303.2 K | 0.114 | 412.06
308.2 K | 0.149 | 417.75
313.2 K | 0.193 | 420.59
318.2 K | 0.245 | 423.43
323.2 K | 0.308 | 423.43
328.2 K | 0.383 | 426.27
333.2 K | 0.468 | 429.12
338.2 K | 0.556 | 431.96
343.2 K | 0.664 | 434.8
348.2 K | 0.917 | 440.48
353.2 K | 1.21 | 443.32
358.2 K | – | 443.32

CCCCn1cc[n+](C)c1.COS(=O)(=O)[O-] [1-butyl-3-methylimidazolium methyl sulfate]
Conditions | electrical conductivity, [1] [S/m] | molar heat capacity at constant pressure, [2] [J/K/mol]
303.2 K | 0.217 | 375.47
308.2 K | 0.276 | 380.48
313.2 K | 0.348 | 382.98
318.2 K | 0.43 | 382.98
323.2 K | 0.522 | 385.49
328.2 K | 0.626 | 387.99
333.2 K | 0.741 | 390.49
338.2 K | 0.867 | 393
343.2 K | 1.01 | 393
348.2 K | 1.32 | 398
353.2 K | 1.67 | 398
358.2 K | – | 400.51

CCCCn1cc[n+](C)c1.F[B-](F)(F)F [1-butyl-3-methylimidazolium tetrafluoroborate]
Conditions | electrical conductivity, [1] [S/m] | molar heat capacity at constant pressure, [2] [J/K/mol]
303.2 K | 0.295 | 368.42
308.2 K | 0.364 | 370.68
313.2 K | 0.446 | 372.94
318.2 K | 0.542 | 375.2
323.2 K | 0.651 | 377.46
328.2 K | 0.783 | 379.72
333.2 K | 0.926 | 381.98
338.2 K | 1.08 | 384.24
343.2 K | 1.25 | 386.5
348.2 K | 1.67 | 388.76
353.2 K | 2.18 | 391.02
358.2 K | – | 393.28
